Article PMC5421785, “Citrullination only infrequently impacts peptide binding to HLA class II MHC” (PLoS ONE, 2017)
Square brackets hold non-standard residues; d marks the D form. Ends that are not written are not given here. Peptide text beside a SMILES is read from it. Cit = NC(=O)NCCC[C@H](N)C(=O)O

Columns and labels:
Experiment in all cases: HLA class II peptide binding, inhibition of radiolabeled peptide binding to purified MHC; as to IC50 DRB1*01:01: competition with radiolabeled peptide (0.1–1 nM); as to IC50 DRB1*04:01: competition with radiolabeled peptide (0.1–1 nM)
[1] = target: T1, DRB3*01:01 (Homo sapiens, UniProt P01903+P79483); conditions: Other DR, competition with radiolabeled peptide, two-day incubation, three or more independent experiments
T1 construct: EBV transformed homozygous cell lines were used as sources of MHC molecules; endogenous in cells; host or cells: EBV transformed homozygous cell lines

[2] = target: DRB1*04:05 (Homo sapiens, UniProt P01903+P01911, A100R/A169T/D86S/F76Y/I96L/K127E/L162R/M171V/N62H/P40V/Q125Y/R42H/S133A/S149N/S66Y/V115G/V209L/W38E); conditions: SE+, competition with radiolabeled peptide, two-day incubation, three or more independent experiments
[3] = target: DRB1*09:01 (Homo sapiens, UniProt P01903+P01911, A100R/A103E/D57H/D86V/F55Y/F60I/F76Y/I96F/K127E/L162R/M171V/P40D/Q125H/Q99R/R33Q/R42F/S133A/S66N/T210M/V115G/W38K/Y107V/Y59G/Y89S); conditions: Other DR, competition with radiolabeled peptide, two-day incubation, three or more independent experiments
[4] = target: T2, DRB1*15:01 (Homo sapiens, UniProt P01903+P01911); conditions: SE-, competition with radiolabeled peptide, two-day incubation, three or more independent experiments
T2 construct: EBV transformed homozygous cell lines were used as sources of MHC molecules; endogenous in cells; host or cells: EBV transformed homozygous cell lines

[5] = target: DRB3*02:02 (Homo sapiens, UniProt P01903+P79483, A212P/D57E/F66Y/L67A/R103Q/R218S/R40L/S89Y/T80R/V86D/Y55F/Y59H); conditions: Other DR, competition with radiolabeled peptide, two-day incubation, three or more independent experiments
[6] = target: DRB1*11:01 (Homo sapiens, UniProt P01903+P01911, A100R/A169T/A87E/I96F/K41T/L162R/M171V/P40S/Q125H/Q178H/Q39Y/Q99D/R42S/S66Y/T262R/V115G/W38E); conditions: SE-, competition with radiolabeled peptide, two-day incubation, three or more independent experiments
[7] = target: DQB1*03:01 (Homo sapiens, UniProt P01909+P01920); conditions: DQ, competition with radiolabeled peptide, two-day incubation, three or more independent experiments
Sequence of DQB1*03:01 (P01920 33-261, other chains not shown): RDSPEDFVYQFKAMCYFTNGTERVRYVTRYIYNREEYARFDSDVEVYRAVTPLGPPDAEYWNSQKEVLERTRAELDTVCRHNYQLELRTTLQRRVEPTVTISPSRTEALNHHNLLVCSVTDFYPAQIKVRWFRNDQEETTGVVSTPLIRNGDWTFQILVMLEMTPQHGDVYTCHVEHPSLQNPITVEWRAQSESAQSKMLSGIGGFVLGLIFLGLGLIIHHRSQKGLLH

[8] = target: DRB1*16:02 (Homo sapiens, UniProt P01903+P01911, A100R/F76Y/I96L/Q99D/V115G); conditions: SE-, competition with radiolabeled peptide, two-day incubation, three or more independent experiments
[9] = target: T3, DPB1*04:01 (Homo sapiens, UniProt P04440+P20036); conditions: DP; purified MHC, competition with radiolabeled peptide, two-day incubation, three or more independent experiments
T3 construct: EBV transformed homozygous cell lines were used as sources of MHC molecules; endogenous in cells; host or cells: EBV transformed homozygous cell lines
T3 sequence (P04440 30-258): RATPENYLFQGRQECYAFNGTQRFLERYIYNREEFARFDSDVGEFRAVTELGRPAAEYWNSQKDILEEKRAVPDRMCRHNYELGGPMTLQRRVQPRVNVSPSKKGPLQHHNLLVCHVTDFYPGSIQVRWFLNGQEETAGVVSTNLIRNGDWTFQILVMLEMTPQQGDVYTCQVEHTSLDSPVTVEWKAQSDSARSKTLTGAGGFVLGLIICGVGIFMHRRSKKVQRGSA
T3 sequence (P20036 29-260 partner): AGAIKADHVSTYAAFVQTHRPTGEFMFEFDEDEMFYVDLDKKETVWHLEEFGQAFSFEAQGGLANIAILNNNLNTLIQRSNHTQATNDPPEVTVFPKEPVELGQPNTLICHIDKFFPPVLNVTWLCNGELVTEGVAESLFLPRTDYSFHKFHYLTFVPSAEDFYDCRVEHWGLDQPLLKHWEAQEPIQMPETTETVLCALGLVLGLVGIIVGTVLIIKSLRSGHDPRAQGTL

[10] = target: DRB1*12:01 (Homo sapiens, UniProt P01903+P01911, A100R/A169T/D57E/D86V/F55L/H45Y/K41T/L162R/M171V/P40S/Q125H/Q178H/Q39Y/Q99D/R42G/S66L/T262R/V114A/V67L/W38E/Y59H/Y61H/Y89S); conditions: SE-, competition with radiolabeled peptide, two-day incubation, three or more independent experiments
[11] = target: T4, HLA-DRB1*01:01 (Homo sapiens, UniProt P01903+P01911, A100R/D57E/F55L/F60I/F76Y/I96L/L162R/M171V/P40L/Q125E/R42F/V115G/Y59C); conditions: read-out: IC50 DRB1*01:01; also: competition with radiolabeled peptide (0.1–1 nM)
T4 construct: EBV transformed homozygous cell lines were used as sources of MHC molecules; endogenous in cells; host or cells: EBV transformed homozygous cell lines

[12] = target: DRB1*08:02 (Homo sapiens, UniProt P01903+P01911, A100R/A103L/A169T/F76Y/H45Y/I96F/K41T/L162R/M171V/P40S/Q125H/Q178H/Q39Y/Q99D/R218S/R42G/S66Y/V115G/W38E); conditions: Other DR, competition with radiolabeled peptide, two-day incubation, three or more independent experiments
[13] = target: T5, DRB5*01:01 (Homo sapiens, UniProt P01903+Q30154); conditions: Other DR, competition with radiolabeled peptide, two-day incubation, three or more independent experiments
T5 construct: EBV transformed homozygous cell lines were used as sources of MHC molecules; endogenous in cells; host or cells: EBV transformed homozygous cell lines

[14] = target: DRB1*03:01 (Homo sapiens, UniProt P01903+P01911, A100K/A102G/A103R/A169T/F55Y/I96L/K41T/L162R/M171V/P40S/Q125H/Q178H/Q39Y/R42S/S66N/T106N/T262R/W38E/Y61H); conditions: Other DR, competition with radiolabeled peptide, two-day incubation, three or more independent experiments
[15] = target: DRB1*10:01 (Homo sapiens, UniProt P01903+P01911, A100R/A169T/D57E/F55L/F60V/F69Y/F76Y/I96L/L162R/M171V/P40V/Q260P/Q39E/Q99R/R195Q/R42F/S149N/S66Y/T210M/V115G/V67A/W38E/Y59R/Y61H); conditions: SE+, competition with radiolabeled peptide, two-day incubation, three or more independent experiments
[16] = target: DRB1*07:01 (Homo sapiens, UniProt P01903+P01911, A100R/A102G/A103Q/D57E/D86V/E43K/F76Y/K127E/L162R/M171V/P40G/Q125H/Q99D/R33Q/R42Y/R54Q/S133A/S66F/T210M/V115G/Y107V/Y59L/Y89S); conditions: Other DR, competition with radiolabeled peptide, two-day incubation, three or more independent experiments
[17] = target: DRB1*04:02 (Homo sapiens, UniProt P01903+P01911, A100E/A169T/F76Y/K127E/L162R/M171V/N62H/P40V/Q125Y/Q99D/R42H/S133A/S149N/S66Y/V209L/W38E); conditions: SE-, competition with radiolabeled peptide, two-day incubation, three or more independent experiments
[18] = target: DRB1*13:02 (Homo sapiens, UniProt P01903+P01911, A100E/A169T/K41T/L162R/M171V/P40S/Q125H/Q178H/Q39Y/Q99D/R42S/S66N/T262R/V115G/W38E/Y61H); conditions: SE-, competition with radiolabeled peptide, two-day incubation, three or more independent experiments
[19] = target: T6, DRB4*01:01 (Homo sapiens, UniProt P01903+P13762, G164S); conditions: Other DR, competition with radiolabeled peptide, two-day incubation, three or more independent experiments
T6 construct: EBV transformed homozygous cell lines were used as sources of MHC molecules; endogenous in cells; host or cells: EBV transformed homozygous cell lines

[20] = target: T7, HLA-DRB1*04:01 (Homo sapiens, UniProt P01903+P01911, A100K/A169T/F76Y/I96L/K127E/L162R/M171V/N62H/P40V/Q125Y/R42H/S133A/S149N/S66Y/V115G/V209L/W38E); conditions: read-out: IC50 DRB1*04:01; also: competition with radiolabeled peptide (0.1–1 nM)
T7 construct: EBV transformed homozygous cell lines were used as sources of MHC molecules; endogenous in cells; host or cells: EBV transformed homozygous cell lines

[21] = target: DRB1*04:04 (Homo sapiens, UniProt P01903+P01911, A100R/A169T/F76Y/I96L/K127E/L162R/M171V/N62H/P40V/Q125Y/R42H/S133A/S149N/S66Y/V209L/W38E); conditions: SE+, competition with radiolabeled peptide, two-day incubation, three or more independent experiments

| IC50 [1] | IC50 [2] | IC50 [3] | IC50 [4] | IC50 [5] | IC50 [6] | IC50 [7] | IC50 [8] | IC50 [9] | IC50 [10] | IC50 [11] | IC50 [12] | IC50 [13] | IC50 [14] | IC50 [15] | IC50 [16] | IC50 [17] | IC50 [18] | IC50 [19] | IC50 [20] | Compound | further results |
| --- | --- | --- | --- | --- | --- | --- | --- | --- | --- | --- | --- | --- | --- | --- | --- | --- | --- | --- | --- | --- | --- |
| > 30 µM | 0.054 µM | 0.353 µM | 0.0054 µM | > 30 µM | 8.92 µM | 2.01 µM | 0.118 µM | > 30 µM | 2.22 µM | 0.0095 µM | 0.275 µM | 1.36 µM | 25.9 µM | 0.035 µM | 7.31 µM | 0.014 µM | 15 µM | 0.004 µM | 0.0018 µM | CC(C)C[C@H](NC(=O)[C@H](CCCNC(=N)N)NC(=O)[C@@H](NC(=O)[C@H](C)NC(=O)[C@@H](N)CO)C(C)C)C(=O)N[C@@H](CCCNC(N)=O)C(=O)N[C@@H](CO)C(=O)N[C@@H](CO)C(=O)N[C@H](C(=O)N1CCC[C@H]1C(=O)NCC(=O)N[C@H](C(=O)N[C@@H](CCCNC(=N)N)C(=O)O)C(C)C)C(C)C [Vimentin 66–78 Cit] (H-SAVRL[Cit]SSVPGVR-OH) | IC50 [21]: 0.009 µM |
| > 30 µM | 12.8 µM | 11.1 µM | > 30 µM | > 30 µM | 13.9 µM | > 30 µM | 8.43 µM | > 30 µM | 27.8 µM | > 30 µM | 0.457 µM | 0.023 µM | > 30 µM | 3.58 µM | > 30 µM | > 30 µM | > 30 µM | 7.7 µM | > 30 µM | NQDFTNRINKLKNS [Fibrinogen 78–91 WT] | IC50 [21]: 2.05 µM |
| > 30 µM | 3.96 µM | 1.41 µM | 0.0041 µM | 9.09 µM | 11.8 µM | 2.1 µM | 1.08 µM | > 30 µM | 15.9 µM | 3.26 µM | 0.053 µM | 2.23 µM | 12.2 µM | 5.17 µM | > 30 µM | 0.927 µM | 11.4 µM | 2.02 µM | 13.1 µM | SAVRLRSSVPGVR [Vimentin 66–78 WT] | IC50 [21]: 0.206 µM |
